Results on two molecules are retold here after patent publication US20140350300A1, “ALISKIREN HEMIFUMARATE, CRYSTAL FORM AND AMORPHOUS SOLID” (DJADA PHARMACEUTICAL SA, priority 2011, published 2014).

Data set [1] in a line: Compressibility test on tablets. Type of data set: physicochemical. The protocol:
A set of tablets was prepared using different compression forces. A compressibility test was carried out on these.

The nature of data set [2]: Stability test (exposure to humidity, XRPD). It is filed as physicochemical. As to conditions: 25° C. Here is the method: Stability tests were carried out on Aliskiren hemifumarate, amorphous solid of this invention and Aliskiren hemifumarate, amorphous solid obtained as described in WO2008/061622, maintaining the samples at 25° C., 75% RH. […] The same samples were exposed to 25° C., 60% RH.

Take `COCCCOc1cc(C[C@@H](C[C@H](N)[C@@H](O)C[C@H](C(=O)NCC(C)(C)C(N)=O)C(C)C)C(C)C)ccc1OC`: the “Rupture Strength” value in data set [1] (tablet #1, compression strength 22.27 kN) turned out to be 1.5 N; in data set [1] (tablet #2, compression strength 23.82 kN), 2 N; in data set [1] (tablet #3, compression strength 24.15 kN) it was 1.5 N; in data set [1] (tablet #4, compression strength 6.80 kN), 2 N; in data set [1] (tablet #5, compression strength 7.95 kN), 2 N; in data set [1] (tablet #6, compression strength 10.10 kN), 1.5 N. Moreover, the “Rupture Strength” value in data set [1] (tablet #7, compression strength 11.55 kN) was determined as 2.2 N; in data set [1] (tablet #8, compression strength 7.88 kN) it was 2.5 N; in data set [1] (tablet #9, compression strength 10.15 kN), 2 N; in data set [1] (tablet #10, compression strength 13.18 kN) it was 2 N; in data set [1] (tablet #11, compression strength 15.60 kN), 2 N; in data set [1] (tablet #12, compression strength 14.12 kN), 2 N.
With `COCCCOc1cc(C[C@@H](C[C@H](N)[C@@H](O)C[C@H](C(=O)NCC(C)(C)C(N)=O)C(C)C)C(C)C)ccc1OC` [(2S,4S,5S,7S)-5-amino-N-(3-amino-2,2-dimethyl-3-oxypropyl)-4-hydroxy-7-[[4-methoxy-3-(3-methoxypropoxy)pheny]methyl]-8-methyl-2-propan-2 ilnonanamide], the “Typical nature of the diffractogram (XRPD pattern) after exposure” value in data set [2] (60% RH, 5 days, curve A basal vs curve B, FIG. 15) is reported as “lost”. For the same molecule, in data set [2] (75% RH, after 2 hours), the “Change of physical form of the sample” value is given as “changed from solid to viscous liquid form”. The “Rupture strength compared with tablets of amorphous solid obtained as described in WO2008/061622” value in data set [1] (comparison of Tables 7 and 8) is listed as “higher”. In addition, the “Rupture Strength” value in data set [1] (tablet #1, compression strength 11.83 kN) is on record as 4.5 N; in data set [1] (tablet #2, compression strength 5.83 kN) it was 4 N; in data set [1] (tablet #3, compression strength 16.45 kN) it was 2 N; in data set [1] (tablet #4, compression strength 10.85 kN), 4 N; in data set [1] (tablet #5, compression strength 19.43 kN), 3.5 N.
